Experimental data from patent US20150232452A1, “NOVEL RAF KINASE INHIBITORS” (Ruga Corporation, priority 2012, published 2015).

Columns and labels:
[1] = tested on: A375 cells (V600E activated B-RAF); test: In vitro assay for tumor cell growth (MTT, 72 hours incubation); assay type: cell-based; conditions: Homo sapiens, A-375, 72 h, growth inhibition of A375 cells, unit inferred
Method: In Vitro Assays for Tumor Cell Growth
Cell lines are obtained from the American Type Tissue Culture Collection (Maryland, USA) and cultured in media containing heat-inactivated 10% fetal bovine serum. Cell cultures are also maintained in 10 U/mL penicillin, 100 μg/mL streptomycin and 2 mM glutamine. At least triplicate determinations for each individual test compound concentration are made and data is plotted as mean±standard deviation relative to the control vehicle.

[2] = biological target: Braf V600E (recombinant V600E mutated B-RAF) (Homo sapiens, UniProt P15056, V600E); test: In vitro assay for determining inhibition of mutant B-RAF kinase; assay type: biochemical; conditions: 10 nM recombinant V600E mutated B-RAF, 1 μM MEK (K97R) as substrate
Chain of Braf V600E (recombinant V600E mutated B-RAF) (P15056 whole entry V600E): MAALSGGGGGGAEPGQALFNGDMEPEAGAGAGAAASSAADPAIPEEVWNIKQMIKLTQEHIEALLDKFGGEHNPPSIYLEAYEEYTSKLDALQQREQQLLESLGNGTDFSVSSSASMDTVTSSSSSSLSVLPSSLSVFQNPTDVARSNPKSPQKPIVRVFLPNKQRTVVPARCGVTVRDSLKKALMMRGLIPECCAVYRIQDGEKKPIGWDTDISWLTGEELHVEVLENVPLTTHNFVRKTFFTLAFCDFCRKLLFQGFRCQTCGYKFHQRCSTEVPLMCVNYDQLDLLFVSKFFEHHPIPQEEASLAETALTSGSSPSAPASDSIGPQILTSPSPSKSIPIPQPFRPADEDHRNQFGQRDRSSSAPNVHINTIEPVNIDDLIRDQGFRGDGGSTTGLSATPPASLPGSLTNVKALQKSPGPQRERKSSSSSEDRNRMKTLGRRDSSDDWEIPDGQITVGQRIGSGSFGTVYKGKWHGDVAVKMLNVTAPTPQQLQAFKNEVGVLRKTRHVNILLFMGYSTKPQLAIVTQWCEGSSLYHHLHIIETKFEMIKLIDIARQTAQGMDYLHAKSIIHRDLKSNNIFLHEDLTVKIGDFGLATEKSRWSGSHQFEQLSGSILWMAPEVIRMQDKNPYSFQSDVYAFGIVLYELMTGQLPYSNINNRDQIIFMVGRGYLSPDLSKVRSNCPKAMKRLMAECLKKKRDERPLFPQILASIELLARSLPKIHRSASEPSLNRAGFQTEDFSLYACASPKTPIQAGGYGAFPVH
Method: In Vitro Assay for Determining Inhibition of B-RAF Kinase or Mutant B-RAF Kinase
Solutions of varying concentrations of test compounds or vehicle are added to 10 nM recombinant V600E mutated B-RAF proteins incubated in the presence of different concentrations of ATP and 1 μM MEK (K97R) as substrate, as previously described (Wilhelm, S. M., et al., Cancer Res., 64: 7099-7109, 2004; Mason, C. S., et al., EMBO J. 18: 2137-2148, 1999; Marais, R., et al., J. Biol. Chem., 272: 4378-4383, 1997). At least triplicate determinations for each individual test compound concentration are made and data is plotted as mean±standard deviation relative to the control vehicle.

| Compound | IC50 [1] [nM] | IC50 [2] [nM] |
| --- | --- | --- |
| CCn1cc(-c2cccc(NC(=O)Nc3cccc(C)c3)c2)c(-c2ccncc2)n1 [Example 11, 1-(3-(1-ethyl-3-(pyridin-4-yl)-1H-pyrazol-4-yl)phenyl)-3-(m-tolyl)urea] | 3470 | 4.98 |
| CCn1cc(-c2cccc(NC(=O)Nc3ccc(I)cc3)c2)c(-c2ccncc2)n1 [Example 10, 1-(3-(1-ethyl-3-(pyridin-4-yl)-1H-pyrazol-4-yl)phenyl)-3-(4-iodophenyl)urea] | 49 | 2.2 |
| CCn1cc(-c2cccc(NC(=O)Nc3cccc(C(F)(F)F)c3)c2)c(-c2ccncc2)n1 [Example 7, 1-(3-(1-ethyl-3-(pyridin-4-yl)-1H-pyrazol-4-yl)phenyl)-3-(3-(trifluoromethyl)phenyl)urea] | 1750 | 4.44 |
| CCn1cc(-c2cccc(NC(=O)Nc3cccc(F)c3)c2)c(-c2ccncc2)n1 [Example 14, 1-(3-(1-ethyl-3-(pyridin-4-yl)-1H-pyrazol-4-yl)phenyl)-3-(3-fluorophenyl)urea] | – | 39.3 |
| CCn1cc(-c2cccc(NC(=O)Nc3ccc(C)cc3)c2)c(-c2ccncc2)n1 [Example 5, 1-(3-(1-ethyl-3-(pyridin-4-yl)-1H-pyrazol-4-yl)phenyl)-3-(p-tolyl)urea] | 815 | 1.61 |
| CCn1cc(-c2cccc(NC(=O)Nc3ccc(C(F)(F)F)cc3)c2)c(-c2ccncc2)n1 [Example 3, 1-(3-(1-ethyl-3-(pyridin-4-yl)-1H-pyrazol-4-yl)phenyl)-3-(4-(trifluoromethyl)phenyl)urea] | 202 | 0.72 |
| CC(C)(C)c1nc(-c2ccnc(N)n2)c(-c2cccc(NC(=O)Nc3ccc(C(F)(F)F)cc3)c2F)s1 [Example 2, 1-(3-(4-(2-aminopyrimidin-4-yl)-2-(tert-butyl)thiazol-5-yl)-2-fluorophenyl)-3-(4-(trifluoromethyl)phenyl)urea] | > 10000 | 3980 |
| CCn1cc(-c2cccc(NC(=O)Nc3ccc(Cl)cc3Cl)c2)c(-c2ccncc2)n1 [Example 12, 1-(2,4-dichlorophenyl)-3-(3-(1-ethyl-3-(pyridin-4-yl)-1H-pyrazol-4-yl)phenyl)urea] | 1370 | 6.39 |
| CCn1cc(-c2cccc(NC(=O)Nc3ccc(Cl)cc3)c2)c(-c2ccncc2)n1 [Example 16, 1-(4-chlorophenyl)-3-(3-(1-ethyl-3-(pyridin-4-yl)-1H-pyrazol-4-yl)phenyl)urea] | 272 | 2.31 |
| CC(C)(C)c1nc(-c2ccnc(N)n2)c(-c2cccc(NC(=O)Nc3ccc(C(F)(F)F)cc3)c2)s1 [Example 1, 1-(3-(4-(2-aminopyrimidin-4-yl)-2-(tert-butyl)thiazol-5-yl)phenyl)-3-(4-(trifluoromethyl)phenyl)urea] | > 10000 | 225 |
| CCn1cc(-c2cccc(NC(=O)Nc3ccc(I)cc3F)c2)c(-c2ccncc2)n1 [Example 17, 1-(3-(1-ethyl-3-(pyridin-4-yl)-1H-pyrazol-4-yl)phenyl)-3-(2-fluoro-4-iodophenyl)urea] | 166 | – |
| CCn1cc(-c2cccc(NC(=O)Nc3ccc(C(C)C)cc3)c2)c(-c2ccncc2)n1 [Example 6, 1-(3-(1-ethyl-3-(pyridin-4-yl)-1H-pyrazol-4-yl)phenyl)-3-(4-isopropylphenyl)urea] | 449 | 1.18 |
| CCn1cc(-c2cccc(NC(=O)Nc3ccccc3F)c2)c(-c2ccncc2)n1 [Example 15, 1-(3-(1-ethyl-3-(pyridin-4-yl)-1H-pyrazol-4-yl)phenyl)-3-(2-fluorophenyl)urea] | – | 53.8 |
| CCn1cc(-c2cccc(NC(=O)Nc3ccc(C(C)(C)C)cc3)c2)c(-c2ccncc2)n1 [Example 4, 1-(4-(tert-butyl)phenyl)-3-(3-(1-ethyl-3-(pyridin-4-yl)-1H-pyrazol-4-yl)phenyl)urea] | 506 | 6.53 |
| CCn1cc(-c2cccc(NC(=O)Nc3ccc(F)c(C(F)(F)F)c3)c2)c(-c2ccncc2)n1 [Example 8, 1-(3-(1-ethyl-3-(pyridin-4-yl)-1H-pyrazol-4-yl)phenyl)-3-(4-fluoro-3-(trifluoromethyl)phenyl)urea] | 2540 | 4.31 |
| CCn1cc(-c2cccc(NC(=O)Nc3ccc(Cl)c(C(F)(F)F)c3)c2)c(-c2ccncc2)n1 [Example 9, 1-(4-chloro-3-(trifluoromethyl)phenyl)-3-(3-(1-ethyl-3-(pyridin-4-yl)-1H-pyrazol-4-yl)phenyl)urea] | 1780 | 3.01 |
| CCn1cc(-c2cccc(NC(=O)Nc3ccccc3Cl)c2)c(-c2ccncc2)n1 [Example 13, 1-(2-chlorophenyl)-3-(3-(1-ethyl-3-(pyridin-4-yl)-1H-pyrazol-4-yl)phenyl)urea] | – | 58.7 |

Now from value to compound:

| IC50 [1] [nM] | IC50 [2] [nM] | Compound |
| --- | --- | --- |
| 571 | – | CCn1cc(-c2cccc(NC(=O)Nc3ccc(Br)c(F)c3)c2)c(-c2ccnc(N)n2)n1 [Example 27, 1-(3-(3-(2-aminopyrimidin-4-yl)-1-ethyl-1H-pyrazol-4-yl)phenyl)-3-(4-bromo-3-fluorophenyl)urea] |
| 2080 | – | CCn1cc(-c2cccc(NC(=O)Nc3cccc(I)c3)c2)c(-c2ccncc2)n1 [Example 20, 1-(3-(1-ethyl-3-(pyridin-4-yl)-1H-pyrazol-4-yl)phenyl)-3-(3-iodophenyl)urea] |
| – | 1600 | CC(C)(C)n1cc(-c2cccc(NC(=O)Nc3ccc(C(F)(F)F)cc3)c2)c(-c2ccncc2)n1 [Example 25, 1-(3-(1-(tert-butyl)-3-(pyridin-4-yl)-1H-pyrazol-4-yl)phenyl)-3-(4-(trifluoromethyl)phenyl)urea] |
| 42 | – | CCn1cc(-c2cccc(NC(=O)Nc3ccc(I)c(F)c3)c2)c(-c2ccncc2)n1 [Example 19, 1-(3-(1-ethyl-3-(pyridin-4-yl)-1H-pyrazol-4-yl)phenyl)-3-(3-fluoro-4-iodophenyl)urea] |
| 362 | 3.5 | CCn1cc(-c2cccc(NC(=O)Nc3ccc(C(F)(F)F)cc3)c2)c(-c2ccnc(N)n2)n1 [Example 28, 1-(3-(3-(2-aminopyrimidin-4-yl)-1-ethyl-1H-pyrazol-4-yl)phenyl)-3-(4-(trifluoromethyl)phenyl)urea] |
| 85 | – | CCn1cc(-c2cccc(NC(=O)Nc3ccc(Br)cc3)c2)c(-c2ccncc2)n1 [Example 21, 1-(4-bromophenyl)-3-(3-(1-ethyl-3-(pyridin-4-yl)-1H-pyrazol-4-yl)phenyl)urea] |
| 1730 | 6 | CC(C)n1cc(-c2cccc(NC(=O)Nc3ccc(C(F)(F)F)cc3)c2)c(-c2ccncc2)n1 [Example 23, 1-(3-(1-isopropyl-3-(pyridin-4-yl)-1H-pyrazol-4-yl)phenyl)-3-(4-(trifluoromethyl)phenyl)urea] |
| 233 | – | CC(C)n1cc(-c2cccc(NC(=O)Nc3ccc(I)c(F)c3)c2)c(-c2ccncc2)n1 [Example 24, 1-(3-fluoro-4-iodophenyl)-3-(3-(1-isopropyl-3-(pyridin-4-yl)-1H-pyrazol-4-yl)phenyl)urea] |
| 83 | – | CCn1cc(-c2cccc(NC(=O)Nc3ccc(Br)c(F)c3)c2)c(-c2ccncc2)n1 [Example 22, 1-(4-bromo-3-fluorophenyl)-3-(3-(1-ethyl-3-(pyridin-4-yl)-1H-pyrazol-4-yl)phenyl)urea] |
| 541 | – | CCn1cc(-c2cccc(NC(=O)Nc3ccc(Br)cc3F)c2)c(-c2ccncc2)n1 [Example 18, 1-(4-bromo-2-fluorophenyl)-3-(3-(1-ethyl-3-(pyridin-4-yl)-1H-pyrazol-4-yl)phenyl) urea] |
